Source: ChEMBL document CHEMBL1201862, “PubChem BioAssay data set” (2004)
Activity calls are given as the source filed them.

What was measured:
[1] = target: Potassium voltage-gated channel subfamily KQT member 2 (Rattus norvegicus, UniProt O88943); test: KCNQ2 potassium channel inhibitors, dose response, cell-based, automated electrophysiology, set II, rat KCNQ2 (AID 588637); type: functional
[2] = target: Protein Wnt-3a (Mus musculus, UniProt P27467); test: Wnt3a-driven reporter signaling inhibition, dose response, selectivity assay for Gli-SUFU antagonist project, Wnt-LIGHT cells, luminescence (AID 651570); type: functional; settings: read-out: IC50_Mean;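 note: Wnt-LIGHT reporter cells stimulated with conditioned medium from Wnt3a-producing cells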
Protein Wnt-3a, sequence (P27467 whole entry): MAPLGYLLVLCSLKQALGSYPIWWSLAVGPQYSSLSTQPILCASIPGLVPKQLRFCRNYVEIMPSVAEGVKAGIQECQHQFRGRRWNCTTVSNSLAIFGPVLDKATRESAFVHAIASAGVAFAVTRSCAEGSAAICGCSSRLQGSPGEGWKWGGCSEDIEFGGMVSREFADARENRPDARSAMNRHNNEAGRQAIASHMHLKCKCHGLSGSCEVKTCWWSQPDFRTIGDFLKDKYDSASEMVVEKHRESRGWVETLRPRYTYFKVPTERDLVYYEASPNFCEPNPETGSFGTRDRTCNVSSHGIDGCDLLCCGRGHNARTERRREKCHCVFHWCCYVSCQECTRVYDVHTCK

[3] = inhibitors of intracellular T. cruzi replication, confirmation, NIH3T3 host cells, beta-gal luminescence (AID 2044); type: functional, cell-based;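 note: intracellular parasites grown in NIH/3T3 mouse fibroblasts as host cells; luminescent beta-galactosidase reporter signal from transgenic T. cruzi replicating inside host cells; inhibitors lower the luminescence signal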
[4] = cytotoxicity toward NIH3T3 fibroblasts, dose response, counter-screen, cell-based, ATP luminescence, mouse fibroblasts (AID 2010); type: functional;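 note: cells exposed to compound for about 90 hours before reading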
[5] = target: T1, High affinity choline transporter 1 (Homo sapiens, UniProt Q9GZV3); test: CHT activators, dose response, cell-based, 10-point CRC, membrane potential dye (AID 602376); type: functional
T1 sequence (Q9GZV3 whole entry): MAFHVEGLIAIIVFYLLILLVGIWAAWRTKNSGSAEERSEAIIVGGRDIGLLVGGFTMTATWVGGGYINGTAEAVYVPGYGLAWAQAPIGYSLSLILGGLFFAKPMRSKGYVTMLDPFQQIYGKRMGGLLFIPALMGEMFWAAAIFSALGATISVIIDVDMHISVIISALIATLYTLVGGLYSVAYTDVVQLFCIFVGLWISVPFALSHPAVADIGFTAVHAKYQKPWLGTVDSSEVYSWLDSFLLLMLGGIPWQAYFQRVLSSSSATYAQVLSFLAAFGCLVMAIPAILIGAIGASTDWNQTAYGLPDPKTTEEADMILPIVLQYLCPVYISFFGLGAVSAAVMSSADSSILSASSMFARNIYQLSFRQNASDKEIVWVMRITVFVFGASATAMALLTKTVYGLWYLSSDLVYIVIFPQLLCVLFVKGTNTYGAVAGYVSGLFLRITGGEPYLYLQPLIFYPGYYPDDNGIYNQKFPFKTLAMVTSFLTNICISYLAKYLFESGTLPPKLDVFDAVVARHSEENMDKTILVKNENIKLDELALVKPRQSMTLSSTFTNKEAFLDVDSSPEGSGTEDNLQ

[6] = target: T2, Mitochondrial peptide methionine sulfoxide reductase (Bos taurus, UniProt P54149); type: functional;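 note: absorbance read-out, biochemical high-throughput dose-response screen for MsrA inhibitors, confirmatory; recombinant bovine MsrA coupled to E. coli TrxB with NADPH and selenocystamine; potency is for inhibitors of MsrA activity on DMSO substrate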
T2 sequence (P54149 whole entry): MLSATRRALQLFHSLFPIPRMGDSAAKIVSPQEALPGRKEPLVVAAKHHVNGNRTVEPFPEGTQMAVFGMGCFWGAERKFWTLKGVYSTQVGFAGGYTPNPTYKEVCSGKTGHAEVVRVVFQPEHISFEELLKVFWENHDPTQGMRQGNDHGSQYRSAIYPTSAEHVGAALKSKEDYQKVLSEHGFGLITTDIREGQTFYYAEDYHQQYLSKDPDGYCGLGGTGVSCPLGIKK

[7] = target: T3, Caspase-6 (Homo sapiens, UniProt P55212); test: human caspase-6 inhibitors, dose response, biochemical, VEID-R110 fluorescence, cherry-pick (AID 720632)
T3 sequence (P55212 whole entry): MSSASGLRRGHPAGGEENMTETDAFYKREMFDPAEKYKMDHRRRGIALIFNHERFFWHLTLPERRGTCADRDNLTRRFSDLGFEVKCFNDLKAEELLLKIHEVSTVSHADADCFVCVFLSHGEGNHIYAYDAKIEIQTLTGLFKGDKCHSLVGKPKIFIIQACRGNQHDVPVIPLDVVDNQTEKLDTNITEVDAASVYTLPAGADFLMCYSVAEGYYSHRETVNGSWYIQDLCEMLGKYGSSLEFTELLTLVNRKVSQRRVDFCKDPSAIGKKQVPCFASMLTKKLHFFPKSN

[8] = ARNT/TACC3 interaction disruptors, potency, confirmation, biochemical, AlphaScreen, cherry-picked samples (AID 651703); type: functional, Homo sapiens;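 note: His-tagged ARNT PAS-B domain paired with GST-TACC3 E629A dimer coactivator fragment; potency of inhibitors that break up the complex and lower AlphaScreen signal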
[9] = system: Vero; test: cells; type: functional; settings: Chlorocebus sabaeus
[10] = target: Hepatocyte nuclear factor 4-alpha (Homo sapiens, UniProt P41235); type: functional, cell-based;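 note: biochemical luminescence-based dose-response counterscreen measuring inhibition of HNF4 dimerization, run alongside a screen for blockers of ABHD5–perilipin-5 interaction; split luciferase complementation of HNF4 fusion proteins in cell lysate measuring dimerization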
Hepatocyte nuclear factor 4-alpha, sequence (P41235 whole entry, the tested form may be a part): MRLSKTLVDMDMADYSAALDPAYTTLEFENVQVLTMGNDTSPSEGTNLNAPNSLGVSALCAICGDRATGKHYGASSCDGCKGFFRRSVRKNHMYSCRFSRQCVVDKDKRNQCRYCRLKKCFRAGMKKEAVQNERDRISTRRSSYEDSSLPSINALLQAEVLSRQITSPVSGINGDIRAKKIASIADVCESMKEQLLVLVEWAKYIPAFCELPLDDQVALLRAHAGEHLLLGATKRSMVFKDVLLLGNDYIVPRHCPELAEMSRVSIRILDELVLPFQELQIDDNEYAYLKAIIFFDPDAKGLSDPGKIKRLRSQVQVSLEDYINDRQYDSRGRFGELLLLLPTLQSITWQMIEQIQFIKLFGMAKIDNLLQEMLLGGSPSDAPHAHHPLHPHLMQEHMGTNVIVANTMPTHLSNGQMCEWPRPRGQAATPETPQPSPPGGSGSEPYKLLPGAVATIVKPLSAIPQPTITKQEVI

[11] = target: T4, Protein skinhead-1 (Caenorhabditis elegans, UniProt P34707); type: functional
T4 sequence (P34707 whole entry): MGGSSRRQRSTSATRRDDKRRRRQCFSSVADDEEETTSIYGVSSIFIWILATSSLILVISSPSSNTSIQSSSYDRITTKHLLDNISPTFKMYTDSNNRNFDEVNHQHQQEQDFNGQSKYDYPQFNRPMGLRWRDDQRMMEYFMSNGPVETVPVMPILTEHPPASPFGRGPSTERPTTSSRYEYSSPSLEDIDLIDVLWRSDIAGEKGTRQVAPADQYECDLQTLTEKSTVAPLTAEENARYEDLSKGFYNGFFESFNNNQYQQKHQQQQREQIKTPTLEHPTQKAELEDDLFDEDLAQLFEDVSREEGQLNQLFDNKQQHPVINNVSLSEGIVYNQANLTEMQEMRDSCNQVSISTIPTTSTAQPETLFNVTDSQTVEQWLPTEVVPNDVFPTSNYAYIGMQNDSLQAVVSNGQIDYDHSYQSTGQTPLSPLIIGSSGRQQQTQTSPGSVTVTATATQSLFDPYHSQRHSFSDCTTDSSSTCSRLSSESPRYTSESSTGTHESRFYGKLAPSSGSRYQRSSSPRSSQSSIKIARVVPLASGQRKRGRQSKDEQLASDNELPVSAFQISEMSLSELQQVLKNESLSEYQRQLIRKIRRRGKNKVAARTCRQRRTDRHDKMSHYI

[12] = Luminescence Cell-Based Dose Retest to Confirm Inhibitors of Cancer Stem Cells. [Related pubchem assays (depositor defined):AID2717, AID2721]; type: functional; settings: Homo sapiens
[13] = target: T5, Heat shock factor protein 1 (Mus musculus, UniProt P38532); test: HSF1 potentiators in luciferase reporter cells, confirmation, cell-based, NIH3T3, luminescence, dose retest (AID 435004); type: functional;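 note: stress induced by proteasome inhibitor MG132 added 30 min after compound; luciferase reporter driven by HSF1 response element in NIH3T3 cells; actives raise luminescence as potentiators of the MG132 stress response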
T5 sequence (P38532 whole entry): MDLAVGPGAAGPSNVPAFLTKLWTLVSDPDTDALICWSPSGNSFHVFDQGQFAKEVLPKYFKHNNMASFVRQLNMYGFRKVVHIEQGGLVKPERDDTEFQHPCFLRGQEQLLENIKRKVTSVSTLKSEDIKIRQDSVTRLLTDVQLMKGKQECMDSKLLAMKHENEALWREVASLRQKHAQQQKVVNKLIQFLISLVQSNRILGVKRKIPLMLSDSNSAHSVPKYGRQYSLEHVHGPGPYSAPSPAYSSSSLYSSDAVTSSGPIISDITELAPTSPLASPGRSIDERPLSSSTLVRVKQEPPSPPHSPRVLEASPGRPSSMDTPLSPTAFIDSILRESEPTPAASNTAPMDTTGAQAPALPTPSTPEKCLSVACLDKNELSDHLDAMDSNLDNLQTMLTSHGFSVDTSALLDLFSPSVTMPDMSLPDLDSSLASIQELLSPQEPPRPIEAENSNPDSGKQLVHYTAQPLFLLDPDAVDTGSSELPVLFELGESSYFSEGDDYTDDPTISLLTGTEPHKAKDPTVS

[14] = target: Melanin-concentrating hormone receptor 1 (Homo sapiens, UniProt Q99705); test: Late-stage fluorescence-based counterscreen for antagonists of the G-protein coupled receptor 7 (GPR7): cell-based dose response assay to identify antagonists of the melanin-concentrating hormone receptor 1 (MCHR1) Set 5.; type: functional
Melanin-concentrating hormone receptor 1, sequence (Q99705 whole entry): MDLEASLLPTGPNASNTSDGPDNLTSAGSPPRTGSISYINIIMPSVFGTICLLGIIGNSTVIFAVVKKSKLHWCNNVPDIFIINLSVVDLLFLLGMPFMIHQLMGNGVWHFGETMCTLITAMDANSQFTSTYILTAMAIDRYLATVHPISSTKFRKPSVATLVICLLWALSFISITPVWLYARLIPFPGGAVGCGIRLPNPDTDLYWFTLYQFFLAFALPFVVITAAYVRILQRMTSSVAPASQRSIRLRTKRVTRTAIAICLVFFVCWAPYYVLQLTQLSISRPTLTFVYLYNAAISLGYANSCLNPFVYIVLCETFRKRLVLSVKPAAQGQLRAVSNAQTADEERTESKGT

[15] = target: T6, Apoptotic protease-activating factor 1 (Homo sapiens, UniProt O14727); test: SAR analysis of small molecule Activators of Apaf-1 in a Fluorescent assay.; type: functional; settings: read-out: EC50_Mean;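 note: caspase-3 cleavage of fluorogenic Rh110 DEVD substrate downstream of apoptosome activation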
T6 sequence (O14727 whole entry): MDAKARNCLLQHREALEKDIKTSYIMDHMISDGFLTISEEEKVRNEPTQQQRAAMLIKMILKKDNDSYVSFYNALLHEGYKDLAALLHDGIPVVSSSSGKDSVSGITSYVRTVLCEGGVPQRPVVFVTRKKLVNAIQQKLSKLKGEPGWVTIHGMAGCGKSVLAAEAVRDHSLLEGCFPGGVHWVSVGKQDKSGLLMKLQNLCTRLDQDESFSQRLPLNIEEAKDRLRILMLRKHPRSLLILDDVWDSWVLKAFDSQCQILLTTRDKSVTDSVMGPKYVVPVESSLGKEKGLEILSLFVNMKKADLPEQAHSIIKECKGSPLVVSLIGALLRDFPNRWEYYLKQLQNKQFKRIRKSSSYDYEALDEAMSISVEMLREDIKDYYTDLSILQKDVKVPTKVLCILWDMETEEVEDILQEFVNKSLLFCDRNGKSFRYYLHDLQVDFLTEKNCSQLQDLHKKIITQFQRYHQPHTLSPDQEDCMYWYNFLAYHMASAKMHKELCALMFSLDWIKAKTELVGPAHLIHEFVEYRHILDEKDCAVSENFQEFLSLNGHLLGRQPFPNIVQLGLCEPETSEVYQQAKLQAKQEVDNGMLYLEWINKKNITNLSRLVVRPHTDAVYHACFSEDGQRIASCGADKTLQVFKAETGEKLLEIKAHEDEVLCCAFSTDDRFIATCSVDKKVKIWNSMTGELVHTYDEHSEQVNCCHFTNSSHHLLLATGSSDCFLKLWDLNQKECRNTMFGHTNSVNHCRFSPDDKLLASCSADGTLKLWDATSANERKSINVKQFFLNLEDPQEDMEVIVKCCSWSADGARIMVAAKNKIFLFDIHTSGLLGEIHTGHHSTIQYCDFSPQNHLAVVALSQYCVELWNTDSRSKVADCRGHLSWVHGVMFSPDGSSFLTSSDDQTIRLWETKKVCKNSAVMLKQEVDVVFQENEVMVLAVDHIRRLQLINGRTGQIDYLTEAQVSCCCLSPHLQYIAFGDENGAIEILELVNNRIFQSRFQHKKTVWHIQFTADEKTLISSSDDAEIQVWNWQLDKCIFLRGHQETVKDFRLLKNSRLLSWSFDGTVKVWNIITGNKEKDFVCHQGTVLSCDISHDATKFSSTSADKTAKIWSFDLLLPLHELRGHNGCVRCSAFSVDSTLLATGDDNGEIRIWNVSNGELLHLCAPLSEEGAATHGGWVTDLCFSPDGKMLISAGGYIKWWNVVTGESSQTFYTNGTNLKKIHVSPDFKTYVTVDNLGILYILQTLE

[16] = target: T1, High affinity choline transporter 1; test: CHT inhibitors, dose response, cell-based, 10-point CRC, membrane potential dye (AID 588401); type: functional;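 note: membrane potential dye fluorescence of choline-evoked depolarization via CHT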
[17] = target: T1, High affinity choline transporter 1; test: CHT inhibitors, dose response, cell-based, 5-point CRC, membrane potential dye (AID 504840); type: functional
[18] = target: T7, Beta-2 adrenergic receptor (Homo sapiens, UniProt P07550); test: Dose response for HTS for Beta-2AR agonists via FAP method from Powderset1.; type: functional
T7 sequence (P07550 whole entry): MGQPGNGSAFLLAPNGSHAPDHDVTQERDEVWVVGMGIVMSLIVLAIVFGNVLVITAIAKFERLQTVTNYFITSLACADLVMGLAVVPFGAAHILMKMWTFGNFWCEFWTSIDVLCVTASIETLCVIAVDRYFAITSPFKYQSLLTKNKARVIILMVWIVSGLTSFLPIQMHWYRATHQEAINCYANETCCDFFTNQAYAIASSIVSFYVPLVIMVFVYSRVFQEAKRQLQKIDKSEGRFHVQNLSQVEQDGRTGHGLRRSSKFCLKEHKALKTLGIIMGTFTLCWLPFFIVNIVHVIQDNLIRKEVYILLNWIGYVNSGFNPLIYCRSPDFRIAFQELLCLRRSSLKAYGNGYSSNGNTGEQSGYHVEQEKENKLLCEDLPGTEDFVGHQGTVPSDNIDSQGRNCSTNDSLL

[19] = Cytotoxicity Dose Response with AM2.2-beta2AR cells for PowderSet01.; type: functional, cell-based; settings: read-out: EC50_MICROM
[20] = target: T7, Beta-2 adrenergic receptor; test: beta2AR agonists driving receptor internalization, dose response, cell-based, FAP fluorogen, flow cytometry, cherry pick 1 (AID 588763); type: functional
[21] = target: T8, Interleukin-8 (Homo sapiens, UniProt P10145); test: Dose Response confirmation of uHTS small molecule hits for cystic fibrosis induced NFkb Inhibitors in a PAF-induced IL8 counterscreen.; type: functional; settings: read-out: IC50_Mean
T8 sequence (P10145 whole entry): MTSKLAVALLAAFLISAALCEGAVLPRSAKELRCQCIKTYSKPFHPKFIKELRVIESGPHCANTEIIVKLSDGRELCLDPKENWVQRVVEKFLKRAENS

[22] = Luminescence Cell-Based Dose Confirmation HTS to Identify Inhibitors of Platelet Dense Granule Release. [Related pubchem assays: 1663 (Primary HTS), 1678 (Summary of Project)]; type: functional
[23] = target: Luciferin 4-monooxygenase (Photinus pyralis, UniProt P08659); test: firefly luciferase enzyme inhibitors, dose response, biochemical, luminescence (AID 1891)
Luciferin 4-monooxygenase, sequence (P08659 whole entry): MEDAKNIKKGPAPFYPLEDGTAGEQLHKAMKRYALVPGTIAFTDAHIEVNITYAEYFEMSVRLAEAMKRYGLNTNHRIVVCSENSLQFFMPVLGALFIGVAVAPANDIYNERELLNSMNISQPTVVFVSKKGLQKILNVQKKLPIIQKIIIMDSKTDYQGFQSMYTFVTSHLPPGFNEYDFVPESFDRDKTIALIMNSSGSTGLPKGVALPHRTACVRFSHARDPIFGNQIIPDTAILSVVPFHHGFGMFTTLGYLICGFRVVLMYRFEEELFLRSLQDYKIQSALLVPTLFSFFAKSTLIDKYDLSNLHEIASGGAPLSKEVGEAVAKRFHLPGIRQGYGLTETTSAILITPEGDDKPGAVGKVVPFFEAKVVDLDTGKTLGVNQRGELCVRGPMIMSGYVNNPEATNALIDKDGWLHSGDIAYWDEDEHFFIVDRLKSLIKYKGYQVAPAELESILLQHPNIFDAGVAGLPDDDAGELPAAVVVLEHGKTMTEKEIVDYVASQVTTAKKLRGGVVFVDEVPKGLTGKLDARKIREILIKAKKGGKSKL

Potassium voltage-gated channel subfamily KQT member 2, sequence (O88943 whole entry): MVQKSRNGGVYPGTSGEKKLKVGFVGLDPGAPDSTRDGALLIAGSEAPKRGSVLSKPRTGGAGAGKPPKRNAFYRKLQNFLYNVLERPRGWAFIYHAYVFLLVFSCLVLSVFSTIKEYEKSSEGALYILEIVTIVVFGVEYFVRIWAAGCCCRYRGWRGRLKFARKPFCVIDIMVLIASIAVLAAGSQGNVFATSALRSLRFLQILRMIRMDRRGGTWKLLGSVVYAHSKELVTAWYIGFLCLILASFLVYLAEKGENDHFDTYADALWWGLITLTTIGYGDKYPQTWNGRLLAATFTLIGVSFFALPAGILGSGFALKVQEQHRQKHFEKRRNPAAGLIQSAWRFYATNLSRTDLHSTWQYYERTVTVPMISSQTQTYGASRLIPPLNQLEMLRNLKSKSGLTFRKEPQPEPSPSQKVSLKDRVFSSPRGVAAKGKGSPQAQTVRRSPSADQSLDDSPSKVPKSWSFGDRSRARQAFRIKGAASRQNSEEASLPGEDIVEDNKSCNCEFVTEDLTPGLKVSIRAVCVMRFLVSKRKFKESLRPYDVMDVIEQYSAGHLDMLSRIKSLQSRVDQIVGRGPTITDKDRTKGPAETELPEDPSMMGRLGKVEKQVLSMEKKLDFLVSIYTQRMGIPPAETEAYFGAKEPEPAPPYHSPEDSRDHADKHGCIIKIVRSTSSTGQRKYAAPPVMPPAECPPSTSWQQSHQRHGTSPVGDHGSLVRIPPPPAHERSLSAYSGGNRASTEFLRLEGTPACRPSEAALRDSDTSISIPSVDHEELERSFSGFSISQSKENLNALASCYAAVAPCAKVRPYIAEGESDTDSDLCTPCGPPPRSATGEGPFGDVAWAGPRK

## CC1CCN(C(=O)Cn2c(=O)n(Cc3ccc4c(c3)OCO4)c(=O)c3ccccc32)CC1
[1]
  IC50: 3.11 µM (active)

## N=c1c2c(n(Cc3ccc(F)cc3)c3c1CCC3)CCCC2
[2]
  IC50: 13.8 µM (active)
[3]
  EC50: 0.639 µM (active)
[4]
  EC50: > 60 µM (not active)

## COc1ccc(S(=O)(=O)N2c3ccccc3OCC2C)cc1 (stereo unspecified)
[5]
  EC50: 13.9 µM (active)

## C=CCOc1ccc(Br)cc1CNCCCN1CCOCC1
[5]
  EC50: 14.2 µM (active)

## C/C(=N/O)c1cc(C(C)(C)C)c(O)c(C(C)(C)C)c1
[6]
  IC50: 155 µM (inactive)

## CC1CCN(C(=O)COC(=O)c2ccc([N+](=O)[O-])o2)CC1
[7]
  AC50: 18.3 µM (active)
[8]
  AC50: 122 µM (active)

## O=C(/C=C/Sc1ccccc1)c1ccc(Cl)cc1
[9]
  CC50: 14.2 µM (active)
[10]
  IC50: 6.31 µM (active)
[11]
  IC50: 31 µM (active)
[12]
  AC50: 3.46 µM (active)
[13]
  EC50: 9.05 µM (active)

## COc1ccc(Oc2c(Cl)cnn(Cc3cccc4ccccc34)c2=O)cc1F
[14]
  IC50: 2.47 µM (active)

## Cc1cc(NC(=O)C2CC(c3ccc(F)cc3)=NO2)n(-c2ccccc2)n1 (stereo unspecified)
[15]
  EC50: > 100 µM (inactive)

## CCN1CCCC1CNC(=O)c1ccc2c(c1)N(Cc1cccc(Cl)c1)C(=O)c1ccccc1S2(=O)=O (stereo unspecified)
[16]
  IC50: 4.22 µM (active)
[17]
  IC50: 8.64 µM (active)

## O=C(Nc1ccc(S(=O)(=O)N2CCCCC2c2cccnc2)cc1)c1c(F)cccc1F (stereo unspecified)
[18]
  EC50: 0.119 µM (active)
[19]
  EC50: 5.39 µM (active)
[20]
  EC50: 2.46 µM (active)

## COc1cncc(-c2cnc3sc(NCCc4ccccn4)nn23)c1
[21]
  IC50: 9.33 µM (active)

## CCNC(=O)[C@H]1O[C@@H](n2cnc3c(N)nc(NCCc4ccc(CCC(=O)O)cc4)nc32)[C@H](O)[C@@H]1O
[16]
  IC50: 0.807 µM (active)
[17]
  IC50: 0.915 µM (active)
[22]
  EC50: < 0.088 µM (active)
[23]
  EC50: > 112 µM (not active)
